The METLIN SMRT retention time set (Domingo-Almenara et al. 2019)

Assay: gradient 5% acetonitrile 3 min, to 50% in 2 min, to 85% in 15 min, held 3 min, 100 µL/min
Conditions: column: Zorbax Extend-C18 2.1 x 50 mm; eluents: water / acetonitrile, 0.1% formic acid
Outline: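 In both positive and negative ionization mode, a quadrupole time-of-flight mass spectrometer coupled to HPLC analyzed pure standards run in mixtures of ~100 molecules. The Zorbax Extend-C18 column (2.1 × 50 mm, 1.8 μm) was operated at 100 μL/min with water and acetonitrile, each containing 0.1% formic acid. The dead volume was 40 μL and the dwell volume 900 μL. Retention time came from adduct peaks that were computationally picked and individually inspected by hand.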

SMILES | RP-LC retention time
COc1ccc(C(=O)Nc2ccc(-c3cn4ccc(C)nc4n3)cc2)cc1OC | 604 s
CCN1CCN(CCNC(=O)Cn2c(=O)n(-c3ccc(F)cc3)c3ncccc32)CC1 | 583 s
COc1cccc(-c2nc(C3CC(=O)N(c4ccc(Cl)cc4)C3)no2)c1 (configuration not stated) | 1050 s
O=C(Cn1cc(-c2ccccc2)c2ncn(C3CC3)c(=O)c21)NCc1ccc2c(c1)OCO2 | 852 s
Cc1c(C(=O)N2CCOCC2)sc2nc(-c3cccc(F)c3)c(NC3CCCC3)n12 | 859 s
O=C(NCc1ccco1)c1ccc2c(c1)CCCN2C(=O)c1cccc(Cl)c1 | 889 s
CC(C)n1cnc2cc(CNC(=O)C3CCCCC3)ccc21 | 611 s
CNC(=O)N1CCC(N2C(=O)C3(CCCCC3)C2c2ccccc2)CC1 (configuration not stated) | 783 s
O=C(Nc1sc2c(c1C(c1ccncc1)N1CCN(c3ccccn3)CC1)CCCC2)c1ccco1 (configuration not stated) | 630 s
CCCNC(=O)CCNc1c(-c2ccccc2C)nc2cnccn12 | 607 s
O=C(NC1CCCCC1)c1cc2c(s1)CCN(C(=O)c1ccc(F)cc1)C2 | 893 s
CCn1c(=O)n(CC)c2cc(S(=O)(=O)c3ccccc3)c(NC(=O)CC(C)C)cc21 | 937 s
COCCCN1C(=O)CSc2c(c3ccccc3n2C)C1C(=O)NCc1ccc(F)cc1 (configuration not stated) | 893 s
CCOc1ccc(-c2csc(Cc3nc(-c4ccc(C)cc4)no3)n2)cc1 | 1310 s
CSc1ccc(-c2nc3ncccn3c2Nc2ccccc2)cc1 | 777 s
CC(=O)Nc1cccc(C2=NN(C(C)=O)C(c3ccc4nccnc4c3)C2)c1 (configuration not stated) | 617 s
O=C1NCCCn2cc(S(=O)(=O)Nc3cccc(Cl)c3)cc21 | 680 s
CC1CC(=O)c2cnc(N3CCN(c4ncccn4)CC3)nc2C1 (configuration not stated) | 798 s
Cc1nn(CCCC(=O)NCCN2CCCC2)c(=O)c2c(-n3cccc3)n(-c3ccccc3)nc12 | 666 s

SMILES | RP-LC retention time
Cc1cc(C)n(CCNS(C)(=O)=O)n1 | 534 s
CCCN(CC1CCOC1)C(=O)Nc1cccc(F)c1 (configuration not stated) | 684 s
Cc1ccc(-c2nc(NC(=O)Cc3csc(C)n3)sc2C)cc1 | 944 s
CCCn1cc(CCNC(=O)C2CCCCC2)c2cccnc21 | 772 s
O=S(=O)(c1ccc2c(c1)-c1oncc1CO2)N1CCN(Cc2ccc3c(c2)OCO3)CC1 | 666 s
Cc1nc(C)c(C(=O)N2CCCC2c2nc(CCOCC3CC3)no2)s1 (configuration not stated) | 732 s
O=C(NC1CCN(c2cc(-c3cccs3)[nH]n2)C1)c1ccc2nc[nH]c2c1 (configuration not stated) | 564 s
CCCCNC(=O)Cc1c(C)n(C)c2nc(-c3ccccc3)nn2c1=O | 665 s
CCc1cc(=O)n(CC(=O)Nc2ccc(F)cc2F)c(N2CCOCC2)n1 | 743 s
CCOC(=O)c1c(N)n(Cc2ccccc2)c2nc3ccccc3nc12 | 739 s
O=C(Cc1csc2nc(-c3ccccc3)cn12)NCCCc1ccccc1 | 841 s
Cc1ccc2nc(-c3ccc(N4CCOCC4)cc3)c(Nc3ccc4c(c3)OCCO4)n2c1 | 692 s
Cc1cccc(-n2c(=O)c3sccc3n(Cc3nc(-c4ccccc4Cl)no3)c2=O)c1 | 1010 s
Cc1ccc(C)c(NC(=O)Cn2c(N3CCCCC3)nc(C)cc2=O)c1 | 688 s
COc1ccc(S(=O)(=O)N2CCCC(C(=O)Nc3cc(Cl)ccc3OC)C2)cc1Cl (configuration not stated) | 1110 s
COc1cccc(-c2nnc(Cc3nc(-c4ccc(F)cc4)no3)o2)c1 | 1020 s
CNC(=O)c1c(NC(=O)c2cccc(OC)c2)sc2c1CCC2 | 1050 s
CCC(C)OC(=O)C1=C(C)NC(=O)NC1c1ccc(OC)c(O)c1 (configuration not stated) | 693 s
